Measured values taken from paper PMC7767399, “Targeted Isolation of Anti-Trypanosomal Naphthofuran-Quinone Compounds from the Mangrove Plant Avicennia lanata” (Marine Drugs, 2020).
Converted amounts (≈) assume the structure as drawn. Where two headings read alike, the source gives them in different places. Values belong to the molecule of their own block, whether it stands above or below them.

How the values were obtained:
[1] = test system: epimastigotes of T. cruzi; design: method as in PMID 8788584; settings: read-out: 50% culture growth inhibition (GI50); cited from earlier work
[2] = test system: epimastigotes of T. cruzi; design: method as in doi:10.1016/0960-894X(95)00248-R; settings: cited from earlier work
T. b. brucei = assay: Anti-trypanosomal Alamar blue 96-well microplate assay; format: cell-based, Trypanosoma brucei brucei S427 (blood stream form); settings: for MIC: read-out: MIC (minimum inhibitory concentration necessary to achieve 90% growth inhibition); for anti-trypanosomal activity (in words): screening of extract/fractions at 20, 10 and 5 μg/mL, pure compounds by MIC
Procedure: Each fraction was screened at different concentrations of 20, 10 and 5 μg/mL. The assay was performed in duplicate for each sample.
MIC assays were performed for samples having greater than 90% inhibition at a concentration of 20 μM in the initial screening campaign. The MIC values of the isolated compounds against T. b. brucei were determined by averaging the results of two independent assays. The concentrations were averaged and converted to μM.
The activity of the pure compounds was tested in vitro against the blood stream form of Trypanosomal brucei brucei (T. b. brucei) S427. The activity of the samples was determined using the well-established Alamar blue™ 96-well microplate assay, in which the screening procedure was modified from the microplate Alamar blue assay, to determine the drug sensitivity of African trypanosomes. The samples were initially screened at one concentration (20 μg/mL crude extracts or fractions, 20 μM for pure compounds) to determine their in vitro activity. Stock solutions of tested samples in DMSO (Acros Organics BVBA, Janssen Pharmaceutical, Geel, Belgium) were prepared at concentrations of 10 mg/mL (extracts) or 10 mM for pure compounds. The concentration of DMSO should not exceed 0.5% of the final test solution.

PNT2A cells = assay: Cytotoxicity Alamar Blue assay on normal prostatic epithelial cells; format: cell-based, human; settings: 100 μg/mL, % of DMSO control values, n = 3
Procedure: Meanwhile, the initial screening for cytotoxicity activity of the isolated compounds was performed on human normal prostatic epithelial cells (PNT2A) at 100 μg/mL. […] In the initial screening, if the cell viability is less than 60%, a concentration response test at 0.3 to 300 μg/mL was carried on.
The pure compounds from mangrove plant, A. lanata were tested for cytotoxicity in vitro against human normal prostatic epithelial cell line (PNT2A) derived from ECACC (Sigma-Aldrich, Dorset, UK).
The cytotoxicity activity of the pure compounds was determined using the well-established Alamar Blue™ redox-based 96-well microplate assay, in which the screening procedure was modified from. PNT2A cells were seeded into 96-well microplate assay at density of 0.5 × 10^4 cells/well in 100 μL of Dulbecco’s modified Eagle’s medium (DMEM; Invitrogen, Paisley, UK) and incubated at 37 °C, 5% CO2 with a humidified atmosphere for 24 h. […] The microplate plate was incubated at 37 °C, 5% CO2 with a humidified atmosphere for 24 h, then 10 μL of Alamar blue was added. The microplate was further incubated for another 20 h, then the fluorescence was measured using a Wallac Victor 2 microplate reader (Perkin Elmer, Cambridge, UK) (excitation: 530 nm, emission 590 nm). The results were calculated as % of the DMSO control values.

[3] = test system: Giardia lamblia trophozoites; design: method as in doi:10.29356/jmcs.v56i2.305; settings: read-out: IC50 (giardicidal activity); cited from earlier work
T. b. rhodesiense = test system: T. b. rhodesiense; design: method as in PMID 21438586; settings: T. b. rhodesiense in vitro bloodstream trypomastigotes; cited from earlier work
T. cruzi = test system: T. cruzi; design: method as in earlier work; settings: cited from earlier work
[4] = test system: bloodstream strain of T. b. brucei; design: method as in PMID 17637068; settings: cited from earlier work
[5] = different strains of T. cruzi epimastigotes, at 13–17 μM of the tested compounds
[6] = T. cruzi epimastigotes, compounds with two methoxy groups on the benzene ring
[7] = T. b. brucei, two independent assays
[8] = Trypanosoma brucei, T. b. brucei, two independent assays

SMILES: CC1OC2=C(C(=O)c3ccccc3C2=O)C1(C)C (single isomer, unassigned; (-)) [(−)-2,3,3-trimethyl-2-3-dihydronaphtho [2,3-b]furan-4,9-quinone]
GI50 [1]: 2.1 to 5.2 µM

SMILES: COc1ccc2c(c1)C(=O)c1cc(C(C)O)oc1C2=O (stereo not drawn) [2-(1-hydroxyethyl)-6-methoxynaphtho[2,3-b]furan-4,9-quinone]
growth inhibition (GI) [2, 5]: 100%

SMILES: COc1ccc2c(c1OC)C(=O)c1oc(C(C)O)cc1C2=O (stereo not drawn) [2-(1-hydroxyethyl)-7,8-dimethoxynaphtho[2,3-b]furan-4,9-quinone]
growth inhibition (GI) [2, 6]: 22%

SMILES: COc1ccc2c(c1)C(=O)c1cc(C(C)=O)oc1C2=O [2-acetyl-6-methoxynaphtho[2,3-b]furan4,9-quinone]
growth inhibition (GI) [2, 5]: 100%

SMILES: COc1ccc2c(c1OC)C(=O)c1oc(C(C)=O)cc1C2=O [2-acetyl-7,8-dimethoxynaphtho[2,3-b] furan-4,9-quinone]
growth inhibition (GI) [2, 6]: 45%

SMILES: COc1ccc2c(c1OC)C(=O)c1ccoc1C2=O [5,6-dimethoxynaphtho [2,3-b]furan-4,9-quinone]
growth inhibition (GI) [2, 6]: 45%

SMILES: COc1ccc2c(c1OC)C(=O)c1occc1C2=O [7,8-dimethoxynaphtho[2,3-b]furan-4,9-quinone]
growth inhibition (GI) [2, 6]: 25%

MIC (T. b. brucei; [7]): 12.50 µM (≈ 3.25 µg/mL) | MIC (T. b. brucei; [8]): 12.5 µM (≈ 3.25 µg/mL)
SMILES: CC(C)(O)C1Cc2c(c(O)c3ccccc3c2O)O1 (stereo not drawn) [Compound 1, 2-(2-hydroxypropan-2-yl)-2,3-dihydronaphtho-[2,3-b] furan-4,9-diol]
Cell viability, % of DMSO control (PNT2A cells): 86.1%

MIC (T. b. brucei; [7]): 12.50 µM (≈ 4.11 µg/mL) | MIC (T. b. brucei; [8]): 12.5 µM (≈ 4.11 µg/mL)
SMILES: CC(C)=CCC12OC(C(C)(C)O)CC1=C(O)c1ccccc1C2=O (stereo not drawn) [Compound 2, glycosemiquinone]
Cell viability, % of DMSO control (PNT2A cells): 86.1%

MIC (T. b. brucei; [8]): 6.25 µM (≈ 1.8 µg/mL)
SMILES: COc1c2c(c(OC)c3ccccc13)OC(C(C)(C)O)C2 (stereo not drawn) [Compound 3, avicenol C]
Cell viability, % of DMSO control (PNT2A cells): 78.3%

MIC (T. b. brucei; [8]): 3.12 µM (≈ 0.8 µg/mL)
SMILES: CC(C)(O)c1cc2c(o1)C(=O)c1ccccc1C2=O [Compound 4, avicequinone C]
Cell viability, % of DMSO control (PNT2A cells): 68.6%

MIC (T. b. brucei; [7]): 12.50 µM (≈ 4.11 µg/mL) | MIC (T. b. brucei; [8]): 12.5 µM (≈ 4.11 µg/mL)
SMILES: CC(C)=CCC12OC(C(C)(C)O)CC1C(=O)c1ccccc1C2=O (stereo not drawn) [Compound 5, glycoquinone]
Cell viability, % of DMSO control (PNT2A cells): 80.3%

MIC (T. b. brucei; [8]): 154 µM (≈ 65.5 µg/mL)
SMILES: CC1(C)CC[C@]2(C)CC=C3[C@]4(C)CC[C@H]5C(C)(C)C(=O)CC[C@]5(C)[C@H]4CC[C@@]3(C)[C@@H]2C1 [Compound 6, taraxerone]
anti-trypanosomal activity (in words) (T. b. brucei; T. b. brucei): inactive | IC50 [3]: 26.7 µM | Cell viability, % of DMSO control (PNT2A cells): 88.8%

MIC (T. b. brucei; [8]): 145 µM (≈ 62 µg/mL)
SMILES: CC1(C)CC[C@]2(C)CC=C3[C@]4(C)CC[C@H]5C(C)(C)[C@@H](O)CC[C@]5(C)[C@H]4CC[C@@]3(C)[C@@H]2C1 [Compound 7, taraxerol]
IC50 (T. b. rhodesiense): < 10 µM | anti-trypanosomal activity (in words) (T. b. brucei; T. b. brucei): inactive | IC50 [3]: 37.8 µM | Cell viability, % of DMSO control (PNT2A cells): 92.8%

SMILES: CC[C@H](CC[C@@H](C)[C@H]1CC[C@H]2[C@@H]3CC=C4C[C@@H](O)CC[C@]4(C)[C@H]3CC[C@]12C)C(C)C [Compound 8, β-sitosterol]
anti-trypanosomal activity (in words) (T. b. brucei; T. b. brucei): inactive | MIC (T. b. brucei; Trypanosoma brucei): 142 µM (≈ 59 µg/mL) | Cell viability, % of DMSO control (PNT2A cells): 96.2%

SMILES: CC[C@H](/C=C/[C@@H](C)[C@H]1CC[C@H]2[C@@H]3CC=C4C[C@@H](O)CC[C@]4(C)[C@H]3CC[C@]12C)C(C)C [Compound 9, stigmasterol]
anti-trypanosomal activity (in words) (T. b. brucei; T. b. brucei): very low activity | MIC (T. b. brucei; Trypanosoma brucei): 126 µM (≈ 52.2 µg/mL) | Cell viability, % of DMSO control (PNT2A cells): 98.7%

SMILES: Cc1cccc2c1C(=O)c1c(CO)coc1C2=O [maturone]
trypanocidal activity (in words) (T. cruzi): potent trypanocidal activity

SMILES: Cc1ccc(C(=O)Nc2ccc(S(=O)(=O)O)c3cc(S(=O)(=O)O)cc(S(=O)(=O)O)c23)cc1NC(=O)c1cccc(NC(=O)Nc2cccc(C(=O)Nc3cc(C(=O)Nc4ccc(S(=O)(=O)O)c5cc(S(=O)(=O)O)cc(S(=O)(=O)O)c45)ccc3C)c2)c1 [suramin, reference compound]
MIC (T. b. brucei; Trypanosoma brucei): 0.11 µM (≈ 0.143 µg/mL)

SMILES: CC(C)(C)CC(C)(C)c1ccc(OCCO)cc1 [triton X, reference compound]
Cell viability, % of DMSO control (PNT2A cells): 0.082%

SMILES: CC1(C)CC[C@]2(C)CC[C@]3(C)C(=CC[C@@H]4[C@@]5(C)CC[C@H](O)C(C)(C)[C@@H]5CC[C@]43C)[C@@H]2C1 [β-amyrin]
IC50 [4]: 127 µM
